Results reported in patent publication US9580428B2, “Compositions and methods for inhibiting viral polymerase” (priority 2012, dated 2017).

Tested on: A/NJ/15/2007 (H1N1 - H274Y)
Type: cell-based, influenza A virus

Cl.Cl.Nc1ncnc2c([C@@H]3N[C@H](CO)[C@@H](O)[C@H]3O)c[nH]c12 [compound 12i, (2S,3S,4R,5R)-2-(4-amino-5H-pyrrolo[3,2-d]pyrimidin-7-yl)-5-(hydroxymethyl)pyrrolidine-3,4-diol dihydrochloride]
EC50: 1.39 µg/mL
